Experimental findings from patent US20250281460A1, “PEGYLATED BILIRUBIN FOR THE TREATMENT OF […], OBESITY, FATTY LIVER DISEASE, CARDIOVASCULAR DISEASES AND TYPE II DIABETES” (The University of Toledo, priority 2019, published 2025) are described below.

For test [1], the system named is BAT cells. In words: SeaHorse analysis in murine BAT cell line (wild-type). The test is classed as cell-based.
A further test relates to 3T3-L1-WAT adipocytes. Description: SeaHorse oxygen consumption rate in fully differentiated 3T3-L1-WAT adipocytes. The test is classed as cell-based, mouse. The settings on record: 50 μM biliverdin, 50 μM WY 14,463, 10 μM rosiglitazone. The protocol: To compare the effects of bilirubin on the activation of PPARα or PPARγ on mitochondrial function, a SeaHorse XFe96 Analyzer was used to measure oxygen consumption rate (OCR) in fully differentiated 3T3-L1-WAT adipocytes treated with 50 μM biliverdin, 50 μM WY 14,463 (PPARα agonist), or 10 μM rosiglitazone (PPARγ-agonist). […]. Rosiglitazone, but not biliverdin or WY 14,643, enhanced the coupling efficiency. None of the ligands affected non-mitochondrial respiration, basal respiration, or proton leak.
Cellular respiration was quantified using the Seahorse Extracellular Flux Analyzer XF-96 (Agilent Technologies, Cedar Creek, TX). The Seahorse XF Cell Mito Stress Test Kit (Agilent Technologies, Cat #103015-100) was used for analysis of cellular respiration. BAT or 3T3-L1 cells were seeded on a XF96 cell culture microplate (Agilent 101085-004) at 20,000 cells per well. Cells were then differentiated as previously described for 9 days. […] The oxygen consumption rate (OCR) and extracellular acidification rate (ECAR) were used to quantify the cellular energy phenotype of the cells. After treatment, cells were washed twice with Seahorse Bioscience Assay Media (XF Base media with 25 mM Glucose, 2 mM […], and 1 mM Sodium Pyruvate) then incubated with the buffer for 1 hour in a non-CO2 incubator. The Seahorse Cartridge ports were loaded with […] of assay media with […] FCCP, 10 μM Oligomycin, 5 μM Rotenone/Antimycin A in different ports an hour before assay. […] The raw data and graphs were supplied as an Excel File or Graphpad Prizm file.

The test system of test [2] is BAT PPARα CRISPR KO cells. Description: Seahorse analysis in BAT PPARα CRISPR KO cells. The format is cell-based, mouse. The following applies: both KO clones, 24 hours. The text has this:
To further delineate the actions of bilirubin on BAT, CRISPR technology was developed to knockout (KO) PPARα and establish two null clone lines. […]. The function of the ligands was lost in both clones for the BAT PPARα CRISPR KO cells.
CRISPR-Technology was employed in BAT as previously described to excise part of Exon 3 and Exon 4 of the PPARα gene to create a PPARα Knockout BAT cell line. Two sgRNAs with high efficacy and low off-target scores were identified on Exon 3 and 4 of the mouse PPARα gene using Benchling online software. The two Cas9 targets were separated by 9,465 bases. All of the off-targets to our PPARα sgRNA had 4 mismatches, of which at least 1-2 were within the seed region (up to 12 bases proximal to the protospacer adjacent motif (PAM) site) which reduces the likelihood of Cas9 off-target effects. The multiplex sgRNAs were generated using the PrecisionX Multiplex gRNA Cloning Kit according to manufacturer instructions. […] After 36 h of transfection, cells with the top 10% level of fluorescence were single-sorted into 96-well plates by fluorescent activated cell sorting. […]
Cellular respiration was quantified using the Seahorse Extracellular Flux Analyzer XF-96 (Agilent Technologies, Cedar Creek, TX). […] The oxygen consumption rate (OCR) and extracellular acidification rate (ECAR) were used to quantify the cellular energy phenotype of the cells. […]

For test [3], the system named is BAT cells. Description: Real-time PCR in differentiated BAT cells. The test is classed as cell-based, murine. The following applies: 50 μM biliverdin, 50 μM WY14,463, 10 μM rosiglitazone, 24 hrs. How it is done:
Total RNA was extracted from mouse tissues using the miRNeasy Mini Kit (Qiagen). Total RNA was read on a NanoDrop 2000 spectrophotometer (Thermo Fisher Scientific, Wilmington, DE) and cDNA was synthesized using High Capacity cDNA Reverse Transcription Kit (Applied Biosystems). PCR amplification of the cDNA was performed by quantitative real-time PCR using TrueAmp SYBR Green qPCR SuperMix (Advance Bioscience). The thermocycling protocol consisted of 3 min at 95° C., 48 cycles of 15 sec at 95° C., 30 sec at 60° C., and based on primer size 0 to 30 sec at 72° C. and finished with a melting curve ranging from 60-95° C. to allow distinction of specific products. Normalization was performed in separate reactions with primers to 36B4.
(In qPCR the cycle at which signal appears reflects the starting amount.)

The next test deals with T1, human PPARα-LBD (Homo sapiens, UniProt Q07869).
T1 construct: purchased Invitrogen PV4692
T1 sequence (Q07869 239-466 limits assumed): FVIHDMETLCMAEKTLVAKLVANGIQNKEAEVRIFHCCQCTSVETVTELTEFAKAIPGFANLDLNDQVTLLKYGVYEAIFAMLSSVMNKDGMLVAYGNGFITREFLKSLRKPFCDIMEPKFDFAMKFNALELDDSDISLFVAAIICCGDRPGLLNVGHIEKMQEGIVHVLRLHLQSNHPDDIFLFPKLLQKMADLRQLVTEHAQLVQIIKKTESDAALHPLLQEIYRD
In words: MARCONI / PamStation nuclear hormone receptor coregulator assay. The test is classed as binding. The following applies: 50 μM. The protocol: The molecular determinants that dictate specificity and selectivity in PPARα-coregulator interactions are largely unknown. […] To determine if bilirubin binds to the ligand binding domain (LBD) of PPARα to cause recruitment of a specific set of co-regulator proteins, the Microarray Assay for Realtime Coregulator-Nuclear Receptor Interaction (MARCONI) technology was used.
Incubation was performed at 37° C. for 5 minutes in 1.5 ml microtubes prior to placement on respective array for analysis in a PamStation96 (Pamgene International). PPARα binding was reflected via fluorescent signals recorded through the Pamstation96. The signals were transformed into tiff images and binding capacity was quantified using BioNavigator software (Pamgene International).

Entries after “also recorded” stand apart in the source; their conditions may differ.

Take `Cc1cccc(Nc2cc(Cl)nc(SCC(=O)O)n2)c1C` [WY 14,643, WY-14,643]: in the test with BAT cells [1] (BAT cells), the proton leak entry was “stimulated”. Besides, in the test with BAT cells [1] (WT BAT cells, 24 hours), the ATP production entry is on record as “increased; also recorded: stimulated”, the “basal respiration (OCR)” value is given as “increased” and the “maximum respiration (OCR)” value is reported as “increased; also recorded: significantly higher”. Also, in the test with 3T3-L1-WAT adipocytes, the ATP production result is reported as “not observed” and the “mitochondrial OCR for maximum respiration” value is reported as “significantly increased”. The “function of the ligands on mitochondrial function (OCR)” value in test [2] is “lost”. Moreover, in the test with BAT cells [3], the “Adrb3 mRNA” value is listed as “significant increase” and the “Ucp1 mRNA” value is listed as “significant increase”.
As for `C=CC1=C(C)/C(=C/c2[nH]c(Cc3[nH]c(/C=C4\NC(=O)C(C)=C4C=C)c(C)c3CCC(=O)O)c(CCC(=O)O)c2C)NC1=O` [bilirubin, Bilirubin], on human PPARα-LBD, the “binding to the human PPARα-LBD” value is recorded as “direct binding”. Further, the “binding of the human PPARα LBD to coregulator motifs” value on human PPARα-LBD (154 coregulator motifs) is reported as “mitigate binding”. On human PPARα-LBD (subtracted from the vehicle), the “coregulators with reduced interactions with the human PPARα LBD” value is “PRGR (LXXL 102-124), PRGC1 (LXXL 134-154), and PELP1 (LXXL 446-468)”; the “highest interacting coregulators recruited to PPARα-LBD” value is “MAPE (LXXL 249-271), WIPII (LXXL 313-335), CNOT1 (LXXL 2083-2105), PELP1 (LXXL 571-593), and others”.
